Literature values in patent publication US20240350654A1, “NANOCARRIERS FOR TARGETED DELIVERY OF THERAPEUTICS” (Northwestern University, priority 2023, published 2024).

Conditions: humans, approximation

total peak blood concentration of midostaurin and its active metabolites: 2.16 µg/mL
SMILES: CO[C@@H]1[C@H](N(C)C(=O)c2ccccc2)C[C@H]2O[C@]1(C)n1c3ccccc3c3c4c(c5c6ccccc6n2c5c31)C(=O)NC4 [midostaurin]
